Laboratory results as given in publication PMC6698915 (Cancer chemotherapy and pharmacology, 2015).

System: patients with advanced solid tumors
Assay: Adverse events
Assay type: in vivo, human
[1] = Group 1 (n = 16 subjects), with carboplatin + paclitaxel q21 days
[2] = Group 2 (n = 14 subjects), with carboplatin + weekly paclitaxel q28 days

## Nc1cc(C(F)(F)F)c(-c2cc(N3CCOCC3)nc(N3CCOCC3)n2)cn1 [buparlisib]
[1]
  ALT and/or AST elevation, any grade: 9 (56) n (%)
  ALT and/or AST elevation, ≥Grade 3: 2 (13) n (%)
  Alkaline phosphatase, increased, any grade: 14 (88) n (%)
  Alkaline phosphatase, increased, ≥Grade 3: 2 (13) n (%)
  Alopecia, any grade: 14 (88) n (%)
  Anemia, any grade: 13 (81) n (%)
  Anemia, ≥Grade 3: 2 (13) n (%)
  Anorexia, any grade: 13 (81) n (%)
  Anorexia, ≥Grade 3: 1 (6) n (%)
  Anxiety, any grade: 6 (38) n (%)
  Anxiety, ≥Grade 3: 0 n (%)
  Arthralgia, any grade: 13 (81) n (%)
  Arthralgia, ≥Grade 3: 1 (6) n (%)
  Constipation, any grade: 11 (69) n (%)
  Constipation, ≥Grade 3: 0 n (%)
  Cough, any grade: 9 (56) n (%)
  Cough, ≥Grade 3: 0 n (%)
  Depressed mood, any grade: 6 (38) n (%)
  Depressed mood, ≥Grade 3: 1 (6) n (%)
  Diarrhea, any grade: 14 (88) n (%)
  Diarrhea, ≥Grade 3: 1 (6) n (%)
  Dizziness, any grade: 10 (63) n (%)
  Dizziness, ≥Grade 3: 0 n (%)
  Dyspnea, any grade: 11 (69) n (%)
  Dyspnea, ≥Grade 3: 0 n (%)
  Fatigue, any grade: 14 (88) n (%)
  Fatigue, ≥Grade 3: 1 (6) n (%)
  Hypercholesterolemia, any grade: 7 (44) n (%)
  Hypercholesterolemia, ≥Grade 3: 0 n (%)
  Hyperglycemia, any grade: 15 (94) n (%)
  Hyperglycemia, ≥Grade 3: 2 (13) n (%)
  Hypertension, any grade: 6 (38) n (%)
  Hypertension, ≥Grade 3: 0 n (%)
  Hypertriglyceridemia, any grade: 7 (44) n (%)
  Hypertriglyceridemia, ≥Grade 3: 0 n (%)
  Hypoalbuminemia, any grade: 14 (88) n (%)
  Hypoalbuminemia, ≥Grade 3: 0 n (%)
  Hypocalcemia, any grade: 6 (38) n (%)
  Hypocalcemia, ≥Grade 3: 1 (6) n (%)
  Hypomagnesemia, any grade: 10 (63) n (%)
  Hypomagnesemia, ≥Grade 3: 0 n (%)
  Hyponatremia, any grade: 8 (50) n (%)
  Hyponatremia, ≥Grade 3: 3 (19) n (%)
  Hypophosphatemia, any grade: 2 (13) n (%)
  Hypophosphatemia, ≥Grade 3: 2 (13) n (%)
  INR, increased, any grade: 6 (38) n (%)
  INR, increased, ≥Grade 3: 0 n (%)
  Leukopenia, any grade: 12 (75) n (%)
  Leukopenia, ≥Grade 3: 2 (13) n (%)
  Lymphopenia, any grade: 12 (75) n (%)
  Lymphopenia, ≥Grade 3: 12 (75) n (%)
  Mucositis, oral, any grade: 6 (38) n (%)
  Mucositis, oral, ≥Grade 3: 0 n (%)
  Myalgia, any grade: 11 (69) n (%)
  Myalgia, ≥Grade 3: 1 n (%)
  Nausea, any grade: 12 (75) n (%)
  Nausea, ≥Grade 3: 0 n (%)
  Neuropathy, sensory, any grade: 7 (44) n (%)
  Neuropathy, sensory, ≥Grade 3: 1 (6) n (%)
  Neutropenia, any grade: 4 (25) n (%)
  Neutropenia, ≥Grade 3: 2 (13) n (%)
  Rash, skin toxicity, any grade: 13 (81) n (%)
  Rash, skin toxicity, ≥Grade 3: 0 n (%)
  Thrombocytopenia, any grade: 13 (81) n (%)
  Thrombocytopenia, ≥Grade 3: 3 (19) n (%)
Group 2
  incidence rate of ≥grade 3 leukopenia: 64%
  incidence rate of ≥grade 3 neutropenia: 79%
[2]
  ALT and/or AST elevation, any grade: 6 (43) n (%)
  ALT and/or AST elevation, ≥Grade 3: 1 (7) n (%)
  Alkaline phosphatase, elevated, any grade: 5 (36) n (%)
  Alkaline phosphatase, elevated, ≥Grade 3: 1 (7) n (%)
  Alopecia, any grade: 11 (79) n (%)
  Anemia, any grade: 14 (100) n (%)
  Anemia, ≥Grade 3: 1 (7) n (%)
  Anorexia, any grade: 9 (64) n (%)
  Anorexia, ≥Grade 3: 0 n (%)
  Anxiety, any grade: 5 (36) n (%)
  Anxiety, ≥Grade 3: 0 n (%)
  Arthralgia, any grade: 7 (50) n (%)
  Arthralgia, ≥Grade 3: 0 n (%)
  Constipation, any grade: 8 (57) n (%)
  Constipation, ≥Grade 3: 0 n (%)
  Cough, any grade: 8 (57) n (%)
  Cough, ≥Grade 3: 0 n (%)
  Diarrhea, any grade: 7 (50) n (%)
  Diarrhea, ≥Grade 3: 0 n (%)
  Dyspepsia, any grade: 6 (43) n (%)
  Dyspepsia, ≥Grade 3: 0 n (%)
  Fatigue, any grade: 11 (79) n (%)
  Fatigue, ≥Grade 3: 2 (14) n (%)
  Hypercholesterolemia, any grade: 9 (64) n (%)
  Hypercholesterolemia, ≥Grade 3: 0 n (%)
  Hyperglycemia, any grade: 14 (100) n (%)
  Hyperglycemia, ≥Grade 3: 0 n (%)
  Hypertension, any grade: 6 (43) n (%)
  Hypertension, ≥Grade 3: 0 n (%)
  Hypertriglyceridemia, any grade: 8 (57) n (%)
  Hypertriglyceridemia, ≥Grade 3: 1 (7) n (%)
  Hypoalbuminemia, any grade: 13 (93) n (%)
  Hypoalbuminemia, ≥Grade 3: 0 n (%)
  Hypocalcemia, any grade: 5 (36) n (%)
  Hypocalcemia, ≥Grade 3: 0 n (%)
  Hypokalemia, any grade: 5 (36) n (%)
  Hypokalemia, ≥Grade 3: 1 (7) n (%)
  Hypomagnesemia, any grade: 7 (50) n (%)
  Hypomagnesemia, ≥Grade 3: 0 n (%)
  Hyponatremia, any grade: 6 (43) n (%)
  Hyponatremia, ≥Grade 3: 0 n (%)
  Leukopenia, any grade: 14 (100) n (%)
  Leukopenia, ≥Grade 3: 9 (64) n (%)
  Lymphopenia, any grade: 7 (50) n (%)
  Lymphopenia, ≥Grade 3: 7 (50) n (%)
  Mucositis, oral, any grade: 5 (36) n (%)
  Mucositis, oral, ≥Grade 3: 2 (14) n (%)
  Myalgia, any grade: 5 (36) n (%)
  Myalgia, ≥Grade 3: 0 n (%)
  Nausea, any grade: 10 (71) n (%)
  Nausea, ≥Grade 3: 0 n (%)
  Neuropathy, sensory, any grade: 5 (36) n (%)
  Neuropathy, sensory, ≥Grade 3: 0 n (%)
  Neutropenia, any grade: 13 (93) n (%)
  Neutropenia, ≥Grade 3: 11 (79) n (%)
  Pain, not otherwise specified, any grade: 5 (36) n (%)
  Pain, not otherwise specified, ≥Grade 3: 0 n (%)
  Rash, skin toxicity, any grade: 8 (57) n (%)
  Rash, skin toxicity, ≥Grade 3: 0 n (%)
  Thrombocytopenia, any grade: 13 (93) n (%)
  Thrombocytopenia, ≥Grade 3: 0 n (%)
Both groups
  febrile neutropenia: no episodes of febrile neutropenia
  treatment-related deaths: no treatment-related deaths
